Two molecules from paper PMC9300923 (Frontiers in Pharmacology, 2022) can be followed below.

One series deals with SLY (Suilysin) (Streptococcus suis, UniProt Q55996). Briefly: biochemical.
Series [1] deals with the molecule itself. Briefly: SDS-PAGE without beta-mercaptoethanol + Western blot of oligomers; purified SLO incubated with or without luteolin at different concentrations, 37°C for 30 min; then 40°C for 10 min in 1x SDS-PAGE loading buffer without β-ME; blot with rabbit polyclonal anti-Streptolysin O; oligomer/monomer ratio by densitometry. In general terms: A western blot detects proteins with antibodies after separation by electrophoresis.

Sequence of SLY (Suilysin) (Q55996 28-497 limits assumed): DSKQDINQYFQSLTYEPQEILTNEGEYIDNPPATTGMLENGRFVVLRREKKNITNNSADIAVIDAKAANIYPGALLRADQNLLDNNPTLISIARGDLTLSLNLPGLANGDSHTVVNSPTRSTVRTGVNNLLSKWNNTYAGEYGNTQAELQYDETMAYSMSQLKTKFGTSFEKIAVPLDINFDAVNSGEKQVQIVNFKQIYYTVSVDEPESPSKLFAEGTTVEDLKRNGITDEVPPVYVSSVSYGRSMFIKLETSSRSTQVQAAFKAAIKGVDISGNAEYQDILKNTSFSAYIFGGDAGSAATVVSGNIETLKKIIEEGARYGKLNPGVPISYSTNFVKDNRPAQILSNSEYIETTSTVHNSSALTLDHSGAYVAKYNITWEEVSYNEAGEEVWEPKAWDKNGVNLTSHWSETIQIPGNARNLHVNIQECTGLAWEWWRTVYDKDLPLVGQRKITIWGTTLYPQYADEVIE

With `O=c1cc(-c2ccc(O)c(O)c2)oc2cc(O)cc(O)c12` [Luteolin], on SLY (Suilysin), the equilibrium dissociation constant (Kd) (as a rule, the equilibrium constant for the complex coming apart) came out at 554 nM.

B1: Streptolysin O (natural protein, UniProt P0C0I3 78-571, looked up)
chain: LAPKEMPLESAEKEEKKSEDKKKSEEDHTEEINDKIYSLNYNELEVLAKNGETIENFVPKEGVKKADKFIVIERKKKNINTTPVDISIIDSVTDRTYPAALQLANKGFTENKPDAVVTKRNPQKIHIDLPGMGDKATVEVNDPTYANVSTAIDNLVNQWHDNYSGGNTLPARTQYTESMVYSKSQIEAALNVNSKILDGTLGIDFKSISKGEKKVMIAAYKQIFYTVSANLPNNPADVFDKSVTFKELQRKGVSNEAPPLFVSNVAYGRTVFVKLETSSKSNDVEAAFSAALKGTDVKTNGKYSDILENSSFTAVVLGGDAAEHNKVVTKDFDVIRNVIKDNATFSRKNPAYPISYTSVFLKNNKIAGVNNRTEYVETTSTEYTSGKINLSHQGAYVAQYEILWDEINYDDKGKEVITKRRWDNNWYSKTSPFSTVIPLGANSRNIRIMARECTGLAWEWWRKVIDERDVKLSKEINVNISGSTLSPYGSITYK
notes: Streptolysin O of Group A Streptococcus (Streptococcus pyogenes), amplified from DNA of GAS strain M1; After the BamHI site the forward primer encodes LAPKEMP; The reverse primer runs to the natural stop codon (...YGSITYK-stop); Surmise: cloning into the BamHI/SacI sites of pET28a with the gene's own stop codon would give an N-terminal His6-thrombin site-T7 tag leader; also called SLO; SLO protein
Consider B1, for which the binding result in series [1] is recorded as “binds”.
